The values that follow come from patent US10590143B2, “Herbicidally active (alkynyl-phenyl)-substituted cyclic dione compounds and derivatives thereof” (Syngenta Limited, priority 2013, dated 2020).

Structures are written as SMILES.

Common to all, as to test: Biological Example 3 glasshouse assay for herbicidal activity, using various adjuvant systems
What all share (type): in vivo
Details in all cases: post-emergence, 8 g/ha, 14 or 15 DAA; adjuvant 0.5% v/v + 1.0% AMS + 12.5% IPA: TEHP (A3-A7), Adigor (A8, P1, P2, P4), Hexamoll DINCH (A1)

The test system of test [1] is Digitaria sanguinalis (DIGSA). As for the experimental part:
(§1) • Materials and Methods • Herbicide Application: Post-emergence foliar spray application, 200 L/ha, usually one or two replicates for the weeds (depending on application rate), and two replicates for soybean. • Climate: Standard warm conditions (tropical), in glasshouse. Specifically, the glasshouse bay conditions are 24° C./18° C. day/night; 16/8 hours light/dark; 65% humidity. • Plants: The herbicidal application takes place at the following growth stages for plants which include inter alia one or more of the following plants (usually the herbicidal application takes place on at least the following plants: DIGSA, ELEIN, SETFA, ZEAMX, GLXMA Nikko, and GLXMA TMG133, and often also either BRADC or BRAPP): • Brachiaria decumbens (BRADC)—growth stage (GS) 12 or 13 (or GS 12)—or, if BRADC is not used, then usually Brachiaria platyphylla (BRAPP)—growth stage 12 or 13 • Digitaria sanguinalis (DIGSA)—growth stage 12 or 13 • Eleusine indica (ELEIN)—growth stage 12 or 13 • Setaria faberi (SETFA)—growth stage 12 or 13 • Echinochloa crus-galli (ECHCG)—growth stage 12 or 13 • Sorghum halepense (annual) (SORHA)—growth stage 12 or 13 • Panicum dichotomiflorum (PANDI)—growth stage 12 or 13 • Zea mays (ZEAMX, maize/corn, e.g. can occur as volunteer corn) cultivar “Garland”—growth stage 12 or 13 • Glycine max (GLXMA, soybean) cultivar “Nikko”—growth stage: 1st trifoliate • Glycine max (GLXMA, soybean) cultivar “TMG133”—which is Roundup Ready™ glyphosate-tolerant soybean cultivar TMG133 (typically available from Monsanto in Brazil)—growth stage: 1st trifoliate. • Herbicidal Compositions Tested:
(§2) Each test compound is applied with one of the following adjuvant systems (all percentages are final concentrations in the aqueous spray mixture): • Adjuvant system 1: 0.5% v/v Adigor™*, 1.0% v/v AMS (ammonium sulphate) and 12.5% v/v IPA (isopropyl alcohol). • Adjuvant system 2: 0.5% v/v Hexamoll™ DINCH**, 1.0% v/v AMS (ammonium sulphate) and 12.5% v/v IPA (isopropyl alcohol). • Adjuvant system 3: 0.5% v/v tris-(2-ethylhexyl)phosphate (“TEHP”), 1.0% v/v AMS (ammonium sulphate) and 12.5% v/v IPA (isopropyl alcohol). ***Adigor™ (currently available in many countries from Syngenta) is an emulsifiable concentrate which consists of: • (i) ethoxylated alcohols, which typically includes ethoxylated higher alcohols (e.g. ethoxylates of alcohols wherein the alcohols are within the range of C12-C22); and • (ii) a mixture of heavy aromatic hydrocarbons, which typically includes (e.g. includes 50% or more by weight of the heavy aromatic hydrocarbons of) a mixture of naphthalenes each of which is substituted by one or more alkyls wherein the alkyl(s) in total have 1-4 carbon atoms per naphthalene molecule (e.g. Solvesso 200 ND™); and • (iii) about 47% w/w and/or about 45% w/v (with respect to the emulsifiable concentrate) of methylated rapeseed oil (rapeseed oil methyl ester) (e.g. Agnique ME 18 RD-F™), as an adjuvant. **Hexamoll™ DINCH™ is 1,2-cyclohexane dicarboxylic acid di-isononyl ester
(§3) Seeds of the weed (including volunteer) plants, typically including inter alia Digitaria sanguinalis (DIGSA), Eleusine indica (ELEIN), Setaria faberi (SETFA), Zea mays (ZEAMX, corn), and sometimes also [either Brachiaria decumbens (BRADC) or Brachiaria platyphylla (BRAPP)], are sown in seed trays (troughs) containing clay loam soil (pH 7.0, 2.2% organic matter, “Trough Mix A”); and soybean seed is sown in pots containing the same soil with 3 soybean seedlings per pot. The plants are sprayed with the test herbicide when they reach the growth stages mentioned above.
(§4) The test herbicidal solutions are prepared by mixing the appropriate aliquots of the test substance(s) and one of the adjuvant systems indicated above*** in deionised water to give the desired treatment concentration.
(§5) The herbicidal application is made as a foliar spray, using a tracksprayer. Following the herbicidal application, the plants are watered twice per day for the duration of the test. […]

The subject of a further test is Setaria faberi (SETFA). The method, then:
as §1, §2, §3, §4, §5

Test [2] concerns Brachiaria decumbens (BRADC). As for the experimental part: as §1, §2, §3, §4, §5
The next test concerns Eleusine indica (ELEIN). As for the experimental part:
as §1, §2, §3, §4, §5

For `COc1cc(C#CCl)cc(F)c1C1C(=O)C2CCC(C2)C1=O` (centres unmarked) [Compound A8, 3-[4-(2-chloroethynyl)-2-fluoro-6-methoxy-phenyl]bicyclo[3.2.1]octane-2,4-dione], the “percentage control of (percentage phytotoxicity on) Digitaria sanguinalis (DIGSA)” value in test [1] was 30%. Moreover, in the test on Setaria faberi (SETFA), the “percentage control of (percentage phytotoxicity on) Setaria faberi (SETFA)” value is 10%. Also, the “percentage control of (percentage phytotoxicity on) Brachiaria decumbens (BRADC)” value in test [2] was found to be 15%. Moreover, the “percentage control of (percentage phytotoxicity on) Eleusine indica (ELEIN)” value in the test on Eleusine indica (ELEIN) came to 5%.
For `CC#Cc1cc(F)c(C2=C(OC(=O)C(C)(C)C)C3CCC(C3)C2=O)c(OC)c1` (centres unmarked) [Compound P1], in test [1], the “percentage control of (percentage phytotoxicity on) Digitaria sanguinalis (DIGSA)” value amounted to 70%.
